The source of these data is US4863918A, “Enamine quaternary compounds, methods of making and their use as muscle relaxants” (BOC, Inc., priority 1988, dated 1989).

The test system of one data set is paw twitch. In words: Twitch depression (muscle relaxant effect) in anesthetized rabbits; rabbit paw twitch. The class given is in vivo, New Zealand White rabbits. The settings on record: for ED90: Oryctolagus cuniculus, read-out: Equi-efficacious dose. Here is the method:
[The procedure below names another organism; the source lists this organism under the same test.] Mongrel dogs were injected with 50 mg/kg of pentobarbital until the onset of anesthesia as determined by the eyeblink reflex test. The injectable solutions prepared above were administered intravenously to the anesthesized mongrel dogs and measurements were made of the muscle relaxant effect including maximum twitch depression, onset, duration and recovery time in a clinically known manner. Each of the subjects were compared with a control animal receiving an injection of distilled water.
The same compound of the present invention as in
A number of compounds in accordance with the present invention were tested for their neuromuscular blockade Properties. Specifically, the acid addition salts of the compounds were dissolved in sterile water for injection.

The nature of data set [1]: Cardiovascular change (HR, BP) at equi-efficacious dose in rabbits. The settings on record: rabbit. It counts as in vivo.
Where [2] appears, read: Table VI, rabbit paw twitch, at indicated dose.
Where [3] appears, read: Table IV, at equi-efficacious dose.
Setting [4] is: Table IV, rabbit, at equi-efficacious dose.
Where [5] appears, read: Table VI, rabbit paw twitch, at indicated dose, in s.
[6] abbreviates: Table VIII, rabbit paw twitch, at indicated dose.
Where [7] appears, read: Table VII, rabbit paw twitch, at indicated dose.
Where [8] appears, read: Table IV, rabbit, at equi-efficacious dose, depolarizer, based on twitch recovery not to-f.

`CC1CC(N2CCC3(CC2)OCC2(CO3)COC3(CCN(C4=CC(=[N+]5CCCC6(CC5)OCCO6)CC(C)C4)CC3)OC2)=CC(=[N+]2CCCC3(CC2)OCCO3)C1` (stereo not drawn) [compound 42]: the Onset with paw twitch (setting [2]) came out at 75.6 s.

Turning to `CC1(C)CC(N2CCC3(CC2)OCC2(CO3)COC3(CCN(C4=CC(=[N+]5CC6CCC(CC6)C5)CC(C)(C)C4)CC3)OC2)=CC(=[N+]2CC3CCC(CC3)C2)C1` [compound 17], the Onset with paw twitch (setting [2]) was found to be 49.6 s.

On to `CC1(C)CC(N2CCC3(CC2)OCC2(CO3)COC3(CCN(C4=CC(=[N+]5CCCCCC5)CC(C)(C)C4)CC3)OC2)=CC(=[N+]2CCCCCC2)C1` [compound 29], for which the Onset with paw twitch (setting [2]) turned out to be 56.1 s.

As to `COc1ccc2cc1Oc1cc3c(cc1OC)CC[N+](C)(C)[C@H]3Cc1ccc(cc1)Oc1c(OC)c(OC)cc3c1[C@@H](C2)[N+](C)(C)CC3` [metocurine], in data set [1] (setting [3]), the BP % is on record as -1.6% and the HR % was 0.2%. Besides, the ED90 in the data set with paw twitch (Table IV, rabbit paw twitch) came to 0.025 mg/kg. Also, in the data set with paw twitch (setting [4]), the “Duration (DURAT.)” value is 37.8 min, the Onset amounted to 72.4 s and the “Recovery (RECOV.)” value stood at 34.9 min.

The molecule `CC1CCC[N+](=C2C=C(N3CCC4(CC3)OCC3(CO4)COC4(CCN(C5=CC(=[N+]6CCCC(C)C6)CC(C)(C)C5)CC4)OC3)CC(C)(C)C2)C1` (stereo not drawn) [compound 33] returned an Onset in the data set with paw twitch (setting [2]) of 53.1 s.

Take `C=CC[N+](CC=C)=C1C=C(N2CCC3(CC2)OCC2(CO3)COC3(CCN(C4=CC(=[N+](CC=C)CC=C)CC(C)(C)C4)CC3)OC2)CC(C)(C)C1` [compound 35]: in the data set with paw twitch (setting [2]), the Onset was determined as 61.9 s.

In the data set with paw twitch (setting [2]), `CC1(C)CC(N2CCC3(CC2)OCC2(CO3)COC3(CCN(C4=CC(=[N+](Cc5ccco5)Cc5ccco5)CC(C)(C)C4)CC3)OC2)=CC(=[N+](Cc2ccco2)Cc2ccco2)C1` [compound 11] yielded an Onset of 77.3 s.

Regarding `CC1(C)CC(N2CCC3(CC2)OCC2(CO3)COC3(CCN(C4=CC(=[N+]5CCc6ccccc6C5)CC(C)(C)C4)CC3)OC2)=CC(=[N+]2CCc3ccccc3C2)C1` [compound 48], the Onset in the data set with paw twitch (setting [5]) is 113.5.

As for `COc1cc(CC2c3c(cc(OC)c(OC)c3OC)CC[N+]2(C)CCCOC(=O)CCC(=O)OCCC[N+]2(C)CCc3cc(OC)c(OC)c(OC)c3C2Cc2cc(OC)c(OC)c(OC)c2)cc(OC)c1OC` (stereo not drawn) [BW938], in data set [1] (in vivo), the BP % is given as -5.2% and the HR % is recorded as -3.8%. In the data set with paw twitch (Table IV, rabbit paw twitch), this molecule yielded an Equi-efficacious dose of 0.010 mg/kg. Also, in the data set with paw twitch (setting [4]), the “Duration (DURAT.)” value is 167.0 min, the Onset stood at 282.4 s and the “Recovery (RECOV.)” value is 101.7 min.

Take `CC1(C)CC(N2CCC3(CC2)OCC2(CO3)COC3(CCN(C4=CC(=[N+](CC5CC5)CC(F)(F)F)CC(C)(C)C4)CC3)OC2)=CC(=[N+](CC2CC2)CC(F)(F)F)C1` [compound 51]: the Onset in the data set on paw twitch (setting [2]) worked out at 51 s.

As to `CC1CC[N+](=C2C=C(N3CCC4(CC3)OCC3(CO4)COC4(CCN(C5=CC(=[N+]6CCC(C)CC6)CC(C)(C)C5)CC4)OC3)CC(C)(C)C2)CC1` (stereo not drawn) [compound 28], the Onset in the data set with paw twitch (setting [2]) was determined as 49.9 s.

Regarding `CC1(C)CC(N2CCCC3(CC2)OCC2(CO3)COC3(CCCN(C4=CC(=[N+]5CCCCCC5)CC(C)(C)C4)CC3)OC2)=CC(=[N+]2CCCCCC2)C1` (stereo not drawn) [No. 13], in the data set on paw twitch (setting [6]), the Onset is 88.3 s.

Regarding `CC[N+](CC1CC1)=C1C=C(N2CCCC3(C2)OCC2(CO3)COC3(CCCN(C4=CC(=[N+](CC)CC5CC5)CC(C)(C)C4)C3)OC2)CC(C)(C)C1` (stereo not drawn) [No. 17], in the data set with paw twitch (setting [7]), the Onset was 39.3 s.

`COC1C[N+](=C2C=C(N3CCCC4(C3)OCC3(CO4)COC4(CCCN(C5=CC(=[N+]6CCC(OC)(OC)C(OC)C6)CC(C)(C)C5)C4)OC3)CC(C)(C)C2)CCC1(OC)OC` (stereo not drawn) yielded an Onset in the data set with paw twitch (setting [7]) of 44.4 s.

Consider `CC1(C)CC(N2CCC3(CC2)OCC2(CO3)COC3(CCN(C4=CC(=[N+]5CCCCCCC5)CC(C)(C)C4)CC3)OC2)=CC(=[N+]2CCCCCCC2)C1` [compound 20], for which the Onset in the data set with paw twitch (setting [2]) was found to be 57.5 s.

Regarding `CC1(C)CC(N2CCC3(CC2)OCC2(CO3)COC3(CCN(C4=CC(=[N+]5CCCC6(CC5)OCCO6)CC(C)(C)C4)CC3)OC2)=CC(=[N+]2CCCC3(CC2)OCCO3)C1` [compound 14], the Onset with paw twitch (setting [2]) came out at 52.8 s.

`CC1(C)CC(N2CCC3(CC2)OCC2(CO3)COC3(CCN(C4=CC(=[N+]5CCCCCC5)CC(C)(C)C4)CC3)OC2)=CC(=[N+]2CCCCCC2)C1` [compound 44]: the Onset in the data set with paw twitch (setting [2]) stood at 67.2 s.

Regarding `C[N+](C)(C)CCCCCCCCCC[N+](C)(C)C` [decamethonium], in data set [1] (setting [3]), the BP % is given as -2.6% and the HR % is -2.8%. For the same molecule, the ED90 with paw twitch (Table IV, rabbit paw twitch) was found to be 0.165 mg/kg. In the data set on paw twitch (setting [4]), this molecule registered an Onset of 104.0 s. In addition, in the data set on paw twitch (setting [8]), the “Duration (DURAT.)” value was determined as 41.7 min and the “Recovery (RECOV.)” value turned out to be 41.7 min.

Consider `CC[N+](CC)=C1C=C(N2CCC3(CC2)OCC2(CO3)COC3(CCN(C4=CC(=[N+](CC)CC)CC(C)C4)CC3)OC2)CC(C)C1` (stereo not drawn) [compound 41], for which, in the data set on paw twitch (setting [2]), the Onset was 51 s.

Regarding `CC[N+](CCC1OCCO1)=C1C=C(N2CCC3(CC2)OCC2(CO3)COC3(CCN(C4=CC(=[N+](CC)CCC5OCCO5)CC(C)(C)C4)CC3)OC2)CC(C)(C)C1` [compound 53], the Onset in the data set on paw twitch (setting [2]) came out at 58.6 s.

With descuronium, in data set [1] (in vivo), the BP % is -7.6% and the HR % is -4.1%. Also, the Equi-efficacious dose in the data set on paw twitch (Table IV, rabbit paw twitch) was determined as 0.053 mg/kg. Further, in the data set with paw twitch (setting [4]), the “Duration (DURAT.)” value was 21.5 min, the Onset turned out to be 129.4 s and the “Recovery (RECOV.)” value was 13.1 min.

Molecule `CC1(C)CC(N2CCC3(CC2)OCC2(CO3)COC3(CCN(C4=CC(=[N+]5CCC(c6ccccc6)CC5)CC(C)(C)C4)CC3)OC2)=CC(=[N+]2CCC(c3ccccc3)CC2)C1` (stereo not drawn) [compound 31] yielded an Onset in the data set with paw twitch (setting [5]) of 105.6.

Take `CC1C[N+](=C2C=C(N3CCCC4(CC3)OCC3(CO4)COC4(CCCN(C5=CC(=[N+]6CCC7(OCCO7)C(C)C6)CC(C)(C)C5)CC4)OC3)CC(C)(C)C2)CCC12OCCO2` (stereo not drawn) [No. 11]: the Onset with paw twitch (setting [6]) amounted to 62.1 s.

With `CCOC(=O)C[N+](CC)=C1C=C(N2CCC3(CC2)OCC2(CO3)COC3(CCN(C4=CC(=[N+](CC)CC(=O)OCC)CC(C)(C)C4)CC3)OC2)CC(C)(C)C1`, the Onset in the data set with paw twitch (setting [2]) was found to be 39 s.

In the data set on paw twitch (setting [2]), `CC1(C)CC(N2CCC3(CC2)OCC2(CO3)COC3(CCN(C4=CC(=[N+]5CCCC5)CC(C)(C)C4)CC3)OC2)=CC(=[N+]2CCCC2)C1` [compound 46] registered an Onset of 62.8 s.

In the data set on paw twitch (setting [7]), `CC1CCC[N+](=C2C=C(N3CCCC4(C3)OCC3(CO4)COC4(CCCN(C5=CC(=[N+]6CCCC(C)C6)CC(C)(C)C5)C4)OC3)CC(C)(C)C2)C1` (stereo not drawn) [No. 20] registered an Onset of 44.9 s.

Molecule `CCC[N+](CC1CC1)=C1C=C(N2CCC3(CC2)OCC2(CO3)COC3(CCN(C4=CC(=[N+](CCC)CC5CC5)CC(C)(C)C4)CC3)OC2)CC(C)(C)C1` [compound 21] gave an Onset with paw twitch (setting [2]) of 47.7 s.

In the data set with paw twitch (setting [2]), `CC1(C)CC(N2CCC3(CC2)OCC2(CO3)COC3(CCN(C4=CC(=[N+]5CCCCCC5)CC(C)(C)C4)CC3)OC2)=CC(=[N+]2CCCCCC2)C1` [compound 24] had an Onset of 64 s.

Turning to `CC[N+](CCC1OCCO1)=C1C=C(N2CCCC3(C2)OCC2(CO3)COC3(CCCN(C4=CC(=[N+](CC)CCC5OCCO5)CC(C)(C)C4)C3)OC2)CC(C)(C)C1` (stereo not drawn) [No. 21], the Onset in the data set on paw twitch (setting [7]) worked out at 33.3 s.

`CC1(C)CC(N2CCCC3(C2)OCC2(CO3)COC3(CCCN(C4=CC(=[N+]5CCCC6(CC5)OCCO6)CC(C)(C)C4)C3)OC2)=CC(=[N+]2CCCC3(CC2)OCCO3)C1` (stereo not drawn) [No. 13] displayed an Onset in the data set on paw twitch (setting [7]) of 36.5 s.

Turning to `CC1(C)CC(N2CCC3(CC2)OCC2(CO3)COC3(CCN(C4=CC(=[N+](CC5CC5)CC5CC5)CC(C)(C)C4)CC3)OC2)=CC(=[N+](CC2CC2)CC2CC2)C1` [compound 52], in the data set with paw twitch (setting [2]), the Onset stood at 48.5 s.

The molecule `CC1(C)CC(N2CCC3(CC2)OCC2(CO3)COC3(CCN(C4=CC(=[N+]5CCCCC5)CC(C)(C)C4)CC3)OC2)=CC(=[N+]2CCCCC2)C1` [compound 50] registered an Onset with paw twitch (setting [2]) of 59.9 s.

Molecule `CCC[N+](CC1CC1)=C1C=C(N2CCC3(CC2)OCC2(CO3)COC3(CCN(C4=CC(=[N+](CCC)CC5CC5)CC(C)C4)CC3)OC2)CC(C)C1` (stereo not drawn) [compound 56] returned an Onset in the data set with paw twitch (setting [2]) of 62.3 s.

Molecule `CC[N+](CC)=C1C=C(N2CCC3(CC2)OCC2(CO3)COC3(CCN(C4=CC(=[N+](CC)CC)CC(C)C4)CC3)OC2)CC(C)C1` (stereo not drawn) [compound 54] returned an Onset in the data set on paw twitch (setting [2]) of 51 s.

In the case of `CC1(C)CC(N2CCCC3(CC2)OCC2(CO3)COC3(CCCN(C4=CC(=[N+]5CCCC6(C5)OCCO6)CC(C)(C)C4)CC3)OC2)=CC(=[N+]2CCCC3(C2)OCCO3)C1` (stereo not drawn) [No. 14], the Onset in the data set with paw twitch (setting [6]) came to 44.5 s.

Regarding `CC1=C(N2CCC3(CC2)OCC2(CO3)COC3(CCN(C4=C(C)C(=[N+]5CCCCCC5)CC4)CC3)OC2)CCC1=[N+]1CCCCCC1` [compound 38], the Onset with paw twitch (setting [5]) is reported as 100.0.

As to `C[N+](CCc1ccccc1)=C1C=C(N2CCC3(CC2)OCC2(CO3)COC3(CCN(C4=CC(=[N+](C)CCc5ccccc5)CC(C)(C)C4)CC3)OC2)CC(C)(C)C1` [compound 36], the Onset in the data set with paw twitch (setting [2]) was 81.9 s.

The molecule `CC1(C)CC(N2CCC3(CC2)OCC2(CO3)COC3(CCN(C4=CC(=[N+]5CCOCC5)CC(C)(C)C4)CC3)OC2)=CC(=[N+]2CCOCC2)C1` [compound 49] showed an Onset with paw twitch (setting [2]) of 58.8 s.

Molecule `CC[N+](Cc1cccs1)=C1C=C(N2CCC3(CC2)OCC2(CO3)COC3(CCN(C4=CC(=[N+](CC)Cc5cccs5)CC(C)(C)C4)CC3)OC2)CC(C)(C)C1` [compound 13] registered an Onset in the data set with paw twitch (setting [2]) of 88.1 s.

On to `CC1(C)CC(N2CCC3(CC2)OCC2(CO3)COC3(CCN(C4=CC(=[N+]5CC6(C)CC5CC(C)(C)C6)CC(C)(C)C4)CC3)OC2)=CC(=[N+]2CC3(C)CC2CC(C)(C)C3)C1` [compound 39], for which the Onset with paw twitch (setting [2]) was 75.9 s.
